Measured values published in the NIST ThermoML archive (doi:10.1021/je049711t).
± gives the expanded uncertainty stated by the source.

Assay: refractive index (Na D-line) (dimensionless)
Settings: 293.15 K; 101.33 kPa; Liquid; Standard Abbe refractometry

| SMILES | refractive index |
| --- | --- |
| CC(=O)OC(C)C [1-methylethyl ethanoate] | 1.3772 ± 0.0008 |
| CC(=O)O [acetic acid] | 1.3719 ± 0.0007 |
| CCCCCOC(C)=O [pentyl ethanoate] | 1.4021 ± 0.0008 |
| O [water] | 1.333 ± 0.0008 |
